Patent publication US8563599B2, “Methods for synthesizing glycinols, glyceollins I and II, compositions of selected intermediates, and therapeutic uses thereof” (The United States of America, represented by the Secretary …, priority 2008, dated 2013)

What was measured:
[1] = target: T1, hrER-α (alpha estrogen receptor) (Homo sapiens, UniProt P03372); assay: ER-α competition binding assay (fluorescence anisotropy, ES2 displacement); conditions: ERα/ES2 complex, 2 h room temperature, FIG. 9; read-out: IC50 for 50% inhibition of a standard's binding with the alpha estrogen receptor (ER-α)
T1 sequence (P03372 1-595): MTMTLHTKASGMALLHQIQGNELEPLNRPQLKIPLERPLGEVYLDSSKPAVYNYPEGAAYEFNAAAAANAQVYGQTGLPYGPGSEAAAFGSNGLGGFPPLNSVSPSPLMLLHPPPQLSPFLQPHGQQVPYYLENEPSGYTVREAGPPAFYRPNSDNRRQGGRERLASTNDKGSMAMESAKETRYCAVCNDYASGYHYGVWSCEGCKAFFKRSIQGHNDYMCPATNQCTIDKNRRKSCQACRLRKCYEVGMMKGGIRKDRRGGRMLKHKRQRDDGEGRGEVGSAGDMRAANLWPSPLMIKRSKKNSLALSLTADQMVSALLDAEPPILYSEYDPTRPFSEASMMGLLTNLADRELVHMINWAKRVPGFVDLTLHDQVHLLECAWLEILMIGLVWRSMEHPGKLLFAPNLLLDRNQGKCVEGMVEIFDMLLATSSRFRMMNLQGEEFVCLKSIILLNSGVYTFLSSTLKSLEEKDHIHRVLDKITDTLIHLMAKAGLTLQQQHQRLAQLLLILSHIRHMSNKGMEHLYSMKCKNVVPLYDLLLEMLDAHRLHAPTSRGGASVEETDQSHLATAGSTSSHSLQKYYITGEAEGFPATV
Protocol: This example illustrates how the biological data pertaining to interaction of the compounds with the alpha-estrogen receptors was obtained.
A 200 μM working stock solution of GLY I was prepared from an original 10 mM DMSO stock solution. The working stock solution was serially diluted in triplicate in screening buffer to the desired concentrations. hrER-α and ES2 were added to a final concentration of 2 nM and 3 nM, respectively. Negative (ER+ES2, equivalent to 0% inhibition) and positive (free ES2, equivalent to 100% inhibition) controls in the absence of competitor were measured in duplicate. After 2 h at room temperature, the anisotropy values in each tube were measured using the Beacon 2000 system CO. The anisotropy values were converted to percent inhibition using the following formula: I%=(A0−A)/(A0−A100)×100, where I% is the percent inhibition, A0 is 0% inhibition, A100 is 100% inhibition, and A represents the observed value. Polarization values were converted to percent inhibition to make the data more intuitive to the reader and to normalize the day-to-day differences in the starting 0% inhibition polarization values. The percent inhibition versus competitor concentration curves were analyzed by nonlinear least-squares curve fitting and yielded an IC50 value (the concentration of competitor needed to displace half of the bound ligand). To compare binding affinities of the test compounds to those reported in the literature, IC50 values were converted to relative binding affinities (RBA) using E2 as a standard. The E2 RBA was set equal to 100 […].

[2] = tested on: estrogen receptor (ERE-luciferase) in MCF7 ER-positive cells; assay: ERE-Luciferase assay, estrogenic and antiestrogenic activity; type: cell-based, human
Protocol: Cell Culture Studies (MCF7 ER-Positive Cells)
Human cancer cell lines derived from breast (MCF7, ER-positive cells) were cultured in 75 ml culture flasks in DMEM (Invitrogen, Co.) supplemented with 10% FBS (Life Technologies, Inc., Gaithersburg, Md.), basic minimum MEM essential (50×, Invitrogen Co.) and MEM non-essential (100×, Invitrogen, Co.) amino acids, sodium pyruvate (100× Invitrogen Co.), antimicotic-antibiotic (10,000 U/mL penicillin G sodium; 10,000 μg/mL streptomycin sulphate; 25 μg/mL amphotericin B as Fungizone®), and human recombinant insulin (4 mg/mL. Invitrogen Co.). The culture flasks were maintained in a tissue culture incubator in a humidified atmosphere of 5% CO2 and 95% air at 37° C. For estrogen studies, cells were washed with PBS 3 times and grown in phenol red-free DMEM supplemented with 5% dextran-coated charcoal-treated FBS (5% CS-FBS) for 72 h before plating for each particular experiment.
Results were then assessed by using an ERE-luciferase assay. The cells were plated in 24 well plates at 5×10^5 cells/well in the same media and allowed to attach overnight. After 18 hours, cells were transfected for 5 h in serum supplemented-free DMEM with […] pGL2-ERE2X-TK-luciferase plasmid, using 6 μl of effectine (Qiagen)/μg of DNA. After 5 h the transfection medium was removed and replaced with phenol red-free DMEM supplemented with 5% CS-FBS containing vehicle, 17β-estradiol, GLY I, or 17β-estradiol plus GLY I, and incubated at 37° C. After 18 h the medium was removed, and 100 μl of lysis buffer was added per well and then incubated for 15 min at room temperature. Cell debris was pelleted by centrifugation at 15000×g for 5 min. cell extracts were normalized for protein concentration using reagent according to the protocol supplied by the manufacturer (Bio-Rad Laboratories, Inc., Hercules, Calif.). Luciferase activity for the cell extracts was determined using Luciferase substrate (Promega Corp.) in an Autoluminat Plus luminometer.

[3] = pH stability study by HPLC; type: physicochemical
Text: This instability could derive by formation of a quinone-methide from the now unprotected ‘Southern’ ring's phenolic hydroxyl-group. Thus, mildly acidic reagents that might be used for de-protection were explored. In the end, NEt3.3 HF (see, e.g., L. D. Julian, J. S. Newcom, W. R. Roush, J. Am. Chem. Soc. 2005, 127, 6186-6187, which is hereby incorporated by reference in its entirety), which provides a pH in the range of 4-5 when run on the 0.1 mmole scale in anhydrous acetonitrile, was most successfully utilized for this transformation. Even with this approach, however, it is important to adjust the pH of the post-reaction medium (as readily followed by TLC) to pH 7-8 by addition of triethylamine so as to avoid decomposition during subsequent workup. Final compounds are obtained in the range of ca. 65-70% yields. Assignment of stereochemistry for these final materials can be accomplished with NMR and CD. In addition, at this point it is convenient to take advantage of chiral HPLC wherein authentic materials from natural sources can be used as standards along with the synthesized racemic materials.

CC1(C)C=Cc2c(ccc3c2OCC2(O)c4ccc(O)cc4OC32)O1 (racemic) [racemic (±)-GLY I, (+) Glyceollin I (Racemic Glyceollin I)]
IC50 [1]: 1400 nM | anti-estrogenic activity (ERE-Luciferase) ([2]; at 10 μM, E2 at 100 pM): strong anti-estrogenic activity | estrogenic activity (ERE-Luciferase) ([2]; concentration not given): no significant estrogenic activity | stability of ring system (HPLC) ([3]; acidic pH as low as 4): reasonable stability | stability of ring system (HPLC) ([3]; basic pH above 8): not stable
